Source: US8835476B2, “Synthesis of novel antimicrobials” (priority 2005, dated 2014)

Assays:
Type in all cases: cell-based
E. coli ATCC 25922 = assay: Broth microdilution MIC, ATCC strains; settings: Escherichia coli, ATCC25922, E. coli ATCC 25922; read-out: MIC (growth inhibition, microdilution method)
Outline: (§1)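 Tested per NCCLS M7-A6 broth microdilution with an inoculum of 5×10^5 CFU/ml and DMSO controls matching solvent levels. Panels were incubated 16 to 20 hours at 35° C. in ambient air, and the MIC was taken as the lowest concentration inhibiting visible growth.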

[1] = tested on: S. liquefaciens ATCC 27592; assay: Broth microdilution MIC, ATCC strains; settings: S. liquefaciens ATCC 27592; read-out: MIC (growth inhibition, microdilution method)
Outline: as §1

[2] = tested on: S. epidermidis ATCC 14990; assay: Broth microdilution MIC, ATCC strains; settings: Staphylococcus epidermidis, ATCC14990; S. epidermidis ATCC 14990; read-out: MIC (growth inhibition, microdilution method)
Outline: as §1

A. anitratus ATCC 19606 = assay: Broth microdilution MIC, ATCC strains; settings: Acinetobacter calcoaceticus, ATCC19606; A. anitratus ATCC 19606; read-out: MIC (growth inhibition, microdilution method)
Outline: as §1

S. warneri ATCC 27836 = assay: Broth microdilution MIC, ATCC strains; settings: Staphylococcus warneri, ATCC27836; S. warneri ATCC 27836; read-out: MIC (growth inhibition, microdilution method)
Outline: as §1

P. mirabilis ATCC 29245 = assay: Broth microdilution MIC, ATCC strains; settings: Proteus mirabilis, ATCC29245; P. mirabilis ATCC 29245; read-out: MIC (growth inhibition, microdilution method)
Outline: as §1

Pr. stuartii ATCC 33672 = assay: Broth microdilution MIC, ATCC strains; settings: Providencia stuartii, ATCC33672; Pr. stuartii ATCC 33672; read-out: MIC (growth inhibition, microdilution method)
Outline: as §1

P. vulgaris ATCC 49132 = assay: Broth microdilution MIC, ATCC strains; settings: Proteus vulgaris, ATCC49132; P. vulgaris ATCC 49132; read-out: MIC (growth inhibition, microdilution method)
Outline: as §1

S. simulans ATCC 27848 = assay: Broth microdilution MIC, ATCC strains; settings: Staphylococcus simulans, ATCC27848, read-out: MIC (growth inhibition, microdilution method)
Outline: as §1

K. pneumoniae ATCC 13883 = assay: Broth microdilution MIC, ATCC strains; settings: Klebsiella pneumoniae, ATCC13883; K. pneumoniae ATCC 13883; read-out: MIC (growth inhibition, microdilution method)
Outline: as §1

B. cepacia ATCC 25416 = assay: Broth microdilution MIC, ATCC strains; settings: Burkholderia cepacia, ATCC25416; B. cepacia ATCC 25416; read-out: MIC (growth inhibition, microdilution method)
Outline: as §1

E. faecium ATCC 35667 = assay: Broth microdilution MIC, ATCC strains; settings: Enterococcus faecium, ATCC35667, read-out: MIC (growth inhibition, microdilution method)
Outline: as §1

P. rettgeri CAP = assay: Broth microdilution MIC, reference strains; settings: Providencia rettgeri; P. rettgeri (CAP in Table 1); read-out: MIC (growth inhibition, microdilution method)
Outline: as §1

[3] = tested on: C. freundii clinical isolates; assay: Broth microdilution MIC, clinical isolate strains (NAUTICA); settings: Table 4B; each table row is one clinical isolate; in µg/mL (unit assumed)
Outline: as §1

[4] = tested on: E. coli clinical isolates; assay: as above; settings: Table 4B; each table row is one clinical isolate; unit assumed
Outline: as §1

[5] = tested on: E. cloacae clinical isolates; assay: as above; settings: Table 4B; each table row is one clinical isolate; unit assumed
Outline: as §1

[6] = tested on: C. koseril clinical isolates; assay: as above; settings: Table 4B; each table row is one clinical isolate; unit assumed
Outline: as §1

[7] = tested on: E. aerogenes clinical isolates; assay: as above; settings: Table 4B; each table row is one clinical isolate; unit assumed
Outline: as §1

[8] = tested on: K. oxytoca clinical isolates; assay: as above; settings: Table 4B; each table row is one clinical isolate; unit assumed
Outline: as §1

[9] = tested on: A. baumanii clinical isolates; assay: as above; settings: Table 4B; each table row is one clinical isolate; unit assumed
Outline: as §1

[10] = tested on: K. pneumoniae clinical isolates; assay: as above; settings: Table 4B; each table row is one clinical isolate; unit assumed
Outline: as §1

[11] = tested on: M. morganii clinical isolates; assay: as above; settings: Table 4B; each table row is one clinical isolate; unit assumed
Outline: as §1

[12] = tested on: S. marcescens clinical isolates; assay: as above; settings: Table 4B; each table row is one clinical isolate; unit assumed
Outline: as §1

[13] = tested on: B. cepacia clinical isolates; assay: as above; settings: Table 4B; each table row is one clinical isolate; unit assumed
Outline: as §1

[14] = tested on: P. mirabilis clinical isolates; assay: as above; settings: Table 4B; each table row is one clinical isolate; unit assumed
Outline: as §1

[15] = tested on: P. retgerri clinical isolates; assay: as above; settings: Table 4B; each table row is one clinical isolate; unit assumed
Outline: as §1

[16] = tested on: S. maltophilia clinical isolates; assay: as above; settings: Table 4B; each table row is one clinical isolate; unit assumed
Outline: as §1

[17] = tested on: S. liquifaciens clinical isolates; assay: as above; settings: Table 4B; each table row is one clinical isolate; unit assumed
Outline: as §1

[18] = tested on: P. stuartii clinical isolates; assay: as above; settings: Table 4B; each table row is one clinical isolate; unit assumed
Outline: as §1

[19] = tested on: P. vulgaris clinical isolates; assay: as above; settings: Table 4B; each table row is one clinical isolate; unit assumed
Outline: as §1

[20] = tested on: C. amalonaticus clinical isolates; assay: as above; settings: Table 4B; each table row is one clinical isolate; unit assumed
Outline: as §1

Row | Compound | MIC (E. coli ATCC 25922) [µg/mL] | MIC [1] [µg/mL] | MIC [2] [µg/mL] | MIC (A. anitratus ATCC 19606) [µg/mL] | MIC (S. warneri ATCC 27836) [µg/mL] | MIC (P. mirabilis ATCC 29245) [µg/mL] | MIC (Pr. stuartii ATCC 33672) [µg/mL] | MIC (P. vulgaris ATCC 49132) [µg/mL] | MIC (S. simulans ATCC 27848) [µg/mL] | MIC (K. pneumoniae ATCC 13883) [µg/mL] | MIC (B. cepacia ATCC 25416) [µg/mL] | MIC (E. faecium ATCC 35667) [µg/mL] | MIC (P. rettgeri CAP) [µg/mL] | MIC, C. FREUNDII [3] | MIC, E. COLI [4] [µg/mL] | MIC, E. CLOACAE [5] [µg/mL] | MIC, C. KOSERI [6] [µg/mL] | MIC, E. AEROGENES [7] [µg/mL] | MIC, K. OXYTOCA [8] [µg/mL] | MIC, A. BAUMANII [9] [µg/mL] | also measured
1 | Cn1nnc(-c2cc(-c3ccc(F)cc3)sc2C(=O)O)n1 [DNM-142, 5-(4-Fluoro-phenyl)-3-(2-methyl-2H-tetrazol-5-yl)-thiophene-2-carboxylic acid] | > 16 | > 16 | > 16 | > 16 | > 16 | > 16 | > 16 | > 16 | > 16 | > 16 | > 16 | > 16 | > 16 | >16 | > 16 | > 16 | > 16 | > 16 | > 16 | > 16 | MIC, K. PNEUMONIAE [10]: > 16 µg/mL; MIC, M. MORGANII [11]: > 16 µg/mL; MIC, S. MARCESCENS [12]: > 16 µg/mL; MIC, B. CEPACIA [13]: > 16 µg/mL; MIC, P. MIRABILIS [14]: > 16 µg/mL; MIC, P. RETTGERI [15]: > 16 µg/mL; MIC, S. MALTOPHILIA [16]: > 16 µg/mL; MIC, S. LIQUEFACIENS [17]: > 16 µg/mL; MIC, P. STUARTII [18]: > 16 µg/mL; MIC, P. VULGARIS [19]: > 16 µg/mL; MIC, C. AMALONATICUS [20]: > 16 µg/mL
2 | Cn1nnnc1-c1cc(-c2ccc(F)cc2)sc1C(=O)O [DNM-143, 5-(4-Fluoro-phenyl)-3-(1-methyl-1H-tetrazol-5-yl)-thiophene-2-carboxylic acid] | > 8 | > 8 | > 8 | > 8 | > 8 | > 8 | > 8 | > 8 | > 8 | > 8 | > 8 | > 8 | > 8 | >8 | > 8 | > 8 | > 8 | > 8 | > 8 | > 8 | MIC, K. PNEUMONIAE [10]: > 8 µg/mL; MIC, M. MORGANII [11]: > 8 µg/mL; MIC, S. MARCESCENS [12]: > 8 µg/mL; MIC, B. CEPACIA [13]: > 8 µg/mL; MIC, P. MIRABILIS [14]: > 8 µg/mL; MIC, P. RETTGERI [15]: > 8 µg/mL; MIC, S. MALTOPHILIA [16]: > 8 µg/mL; MIC, S. LIQUEFACIENS [17]: > 8 µg/mL; MIC, P. STUARTII [18]: > 8 µg/mL; MIC, P. VULGARIS [19]: > 8 µg/mL; MIC, C. AMALONATICUS [20]: > 8 µg/mL
3 | COC(=O)c1sc(-c2ccc(F)cc2)cc1-c1nnn(C)n1 [DNM-144, 5-(4-fluoro-phenyl)-3-(2-methyl-2H-tetrazol-5-yl)-thiophene-2-carboxylic acid methyl ester] | > 8 | > 8 | > 8 | > 8 | > 8 | > 8 | > 8 | > 8 | > 8 | > 8 | > 8 | > 8 | > 8 | >8 | > 8 | > 8 | > 8 | > 8 | > 8 | > 8 | MIC, K. PNEUMONIAE [10]: > 8 µg/mL; MIC, M. MORGANII [11]: > 8 µg/mL; MIC, S. MARCESCENS [12]: > 8 µg/mL; MIC, B. CEPACIA [13]: > 8 µg/mL; MIC, P. MIRABILIS [14]: > 8 µg/mL; MIC, P. RETTGERI [15]: > 8 µg/mL; MIC, S. MALTOPHILIA [16]: > 8 µg/mL; MIC, S. LIQUEFACIENS [17]: > 8 µg/mL; MIC, P. STUARTII [18]: > 8 µg/mL; MIC, P. VULGARIS [19]: > 8 µg/mL; MIC, C. AMALONATICUS [20]: > 8 µg/mL
4 | COC(=O)c1sc(-c2ccc(F)cc2)cc1-c1nnnn1C [DNM-145, 5-(4-Fluoro-phenyl)-3-(1-methyl-1H-tetrazol-5-yl)-thiophene-2-carboxylic acid methyl ester] | > 4 | > 4 | > 4 | > 4 | > 4 | > 4 | > 4 | > 4 | > 4 | > 4 | > 4 | > 4 | > 4 | >4 | > 4 | > 4 | > 4 | > 4 | > 4 | > 4 | MIC, K. PNEUMONIAE [10]: > 4 µg/mL; MIC, M. MORGANII [11]: > 4 µg/mL; MIC, S. MARCESCENS [12]: > 4 µg/mL; MIC, B. CEPACIA [13]: > 4 µg/mL; MIC, P. MIRABILIS [14]: > 4 µg/mL; MIC, P. RETTGERI [15]: > 4 µg/mL; MIC, S. MALTOPHILIA [16]: > 4 µg/mL; MIC, S. LIQUEFACIENS [17]: > 4 µg/mL; MIC, P. STUARTII [18]: > 4 µg/mL; MIC, P. VULGARIS [19]: > 4 µg/mL; MIC, C. AMALONATICUS [20]: > 4 µg/mL
